In PMC10374545, “A small molecule inhibitor of PTP1B and PTPN2 enhances T cell anti-tumor immunity” (Nature Communications, 2023):
“And” between values parts separate entries of the source, which are not always exact repeats. Equal entries are not always repeated.

What was measured:
AT3 mammary tumors [1] = assay: Tumor-infiltrating lymphocytes in AT3 tumors; assay type: in vivo, mouse; design: CD4 EM, individual mice / CD8 EM, individual mice / GRZMB, individual mice / B cells, individual mice / NK cells, individual mice / Tregs, individual mice / MDSCs, individual mice: unit not given here
Description: (§1) Tumor-bearing mice were sacrificed and tumors were excised and digested at 37 °C for 30 min using a cocktail of 1 mg/ml collagenase type IV (Worthington Biochemicals) and 0.02 mg/ml DNase I (Sigma-Aldrich) in DMEM supplemented with 2% (v/v) FBS. Cells were passed through a 70 μm cell strainer (BD Biosciences) twice and processed for flow cytometry. For assessing T cell activation, cells were surface stained with fluorophore-conjugated antibodies to CD62L, CD44, PD-1, and TIM-3. For the assessment of NK cells, B cells, myeloid-derived suppressor cells (MDSCs), dendritic cells (DCs), and tumor-associated macrophages, cells were surface stained with fluorophore-conjugated antibodies to NK1.1, TCRβ, CD19, CD11b, CD11c, F4/80, Ly6C and Ly6G. For the detection of intracellular cytokines TNF and IFNγ, T cells were stimulated with PMA (20 ng/ml; Sigma-Aldrich) and ionomycin (1 μg/ml; Sigma-Aldrich) in the presence of GolgiPlug™ and GolgiStop™ (BD Biosciences) for 4 h at 37 °C in complete T cell medium. For the intracellular detection of granzyme B, cells were processed untreated without the addition of BD GolgiPlug™ and BD GolgiStop™.

[2] = test system: p-STAT-1 and CD3 in AT3-OVA tumors; assay: Immunohistochemistry for p-STAT-1 (Y701) and CD3 in AT3-OVA tumors; assay type: in vivo, mouse; settings: 10 mg/kg i.v.
Description: For the immunohistochemistry analysis of mammary tumor samples, samples were dissected and fixed in 10% formalin. After fixation, the tissues were embedded in paraffin and sectioned onto microscopic glass slides at 4 μm thickness per section. After deparaffinization and rehydration, the slides were subjected to antigen retrieval in Tris/EDTA buffer (pH 8.0) at 120 °C for 10 min and then cooled down to room temperature. The slides were blocked with 5% (v/v) normal goat serum (NGS) containing 0.1% (v/v) TritonX-100 in PBS for 1 h at room temperature and then incubated with primary antibody p-STAT-1 (Tyr701) (1:500; Cell Signaling Technology), or CD3ε (1:1000; Dako) at room temperature for 1 h. Slides were then washed with PBS containing 0.05% (w/v) Tween-20 and visualized using a rabbit IgG VECTORSTAIN ABC Elite and DAB (3,3′‐diaminobenzidine) Peroxidase Substrate Kit (Vector Laboratories, UK) and counterstained with haematoxylin. Slides were imaged on an Olympus CX43 microscope (Olympus, Tokyo, Japan).

[3] = test system: STAT-1 target genes in AT3 tumors; assay: qPCR of STAT-1 target genes in AT3 tumors; assay type: in vivo, mouse
Description: For quantitative real-time PCR analysis, RNA from tumors was isolated using RNAzol (Sigma-Aldrich, St. Louis, MO), and RNA quality was assessed using a NanoDrop 2000 (Thermo Fisher Scientific, Waltham MA). mRNA was reverse-transcribed using the High-Capacity cDNA Reverse Transcription Kit (Applied Biosystems, Thermo Fisher Scientific, Waltham, MA) and processed for quantitative Real-Time PCR using the Fast SYBR Green Master Mix (Applied Biosystems, Thermo Fisher Scientific, Waltham MA) and PrimePCR™ SYBR Green Assays (Bio-Rad, Hercules, CA) for Cxcl9 (qMmuCID0023784), Cxcl10 (qMmuCED0049500), Tapbp (qMmuCEP0035035), Tap1 (qMmuCEP0057739), […], H2ab1 (qMmuCIP0029038), Cd274 (qMmuCED0044192), H2k1 (qMmuCEP0034842), Tnf (qMmuCED0004141) and Ifng (qMmuCID0006268). Relative gene expression was determined by normalization to the house-keeping gene Rps18 (qMmuCED0045430) or Gapdh (qMmuCED0027497). Gene quantification was performed with the comparative Ct (ΔΔCt) method.

AT3 mammary tumors [4] = assay: Tumor-infiltrating lymphocytes in AT3 tumors, Compound 182 with α-PD-1; assay type: in vivo, mouse; design: CD4 EM / CD8 EM / IFNg+ TNF+ / GRZMB / MDSCs / NK cells / Tregs: unit not given here
Description: In addition, mice received four intraperitoneal injections of α-PD-1 (200 μg in 200 μl D-PBS; clone RMP1-14), or rat IgG2a isotype control (100 μg in 200 μl D-PBS, Bio X Cell) twice per week.
as §1

[5] = Morbidity and overt toxicity in treated tumor-bearing mice
Description: Control animals received an injection at the same time of 200 μl of saline. Stock solutions were stored at −80 °C and thawed before each administration.

[6] = AT-3 tumours, Figure 4E, listed as CMP-182
[7] = AT-3 tumours, Figure 4F, listed as CMP-182
[8] = Figure 9A, qPCR in tumour, individual mice, CMP-182 vs Saline
[9] = Figure 9D, tumour-infiltrating cells, AT-3, individual mice, listed as CMP-182
[10] = Figure 9E, AT-3, individual mice, listed as CMP-182
[11] = Figure 9F, tumour-infiltrating cells, AT-3, individual mice, listed as CMP-182

## CC(C)(O)CCOc1ccc2cc(O)c(N3CC(=O)NS3(=O)=O)c(F)c2c1 [Compound 182, 5-(1-Fluoro-3-hydroxy-7-(3-hydroxy-3-methylbutoxy)naphthalen-2-yl)−1,2,5-thiadiazolidin-3-one 1,1-dioxide]
AT3 mammary tumors [1]; 10 mg/kg i.v.
  TILs in AT3 tumors: increased TILs
AT3 mammary tumors [1]; [6]
  CD4 EM, individual mice: 3726.1 and 1503.32 and 2365.26 and 3607.46 and 1559.09
  CD8 EM, individual mice: 36747.8 and 11580.8 and 23763.5 and 22145.6 and 15367.2
  GRZMB, individual mice: 38 and 29.8 and 32 and 36.3 and 27.7
  PD-1 TIM-3, individual mice: 17.7 and 30.7 and 29.6 and 26.7 and 38
AT3 mammary tumors [1]; [7]
  B cells, individual mice: 10773 and 2554.29 and 3750.15 and 13582.9 and 3202.26
  MDSCs, individual mice: 17269.7 and 11457.4 and 14297.5 and 10691.6 and 5468.87
  NK cells, individual mice: 10197.4 and 4505.05 and 4177.56 and 6667.39 and 3703.02
  Tregs, individual mice: 857.48 and 533.579 and 888.636 and 1675.89 and 531.261
[2]
  p-STAT-1 signaling and T cell infiltrates in AT3-OVA tumors of Lck-Cre;Ptpn2fl/fl mice: did not further increase
[2]; C57BL/6 mice
  p-STAT-1 staining and abundance of CD3ε+ T cells in AT3-OVA tumors: increased
[3]; 10 mg/kg i.v.
  expression of STAT-1 target genes, including Cd274, in AT3 tumors: increased expression
[3]; [8]
  cd274: 1.71 and 1.441 and 1.3642 and 1.436 and 2.196 and 0.7307
  cxcl9: 2.179 and 2.3662 and 1.906 and 0.2814 and 3.487 and 0.6344
  cxcl10: 1.765 and 1.612 and 1.49 and 0.6644 and 2.144 and 0.8593
AT3 mammary tumors [4]; Compound 182 10 mg/kg i.v. + α-PD-1 200 μg i.p.
  recruitment of CD4+ and CD8+ effector/memory T cells, combination therapy: synergistic recruitment
AT3 mammary tumors [4]; [9]
  CD4 EM: 43342.4 and 57673.5 and 79430.7 and 97780.3 and 96326.3 and 45818.5
  CD8 EM: 103472 and 141360 and 229947 and 172459 and 191087 and 113353
AT3 mammary tumors [4]; [10]
  GRZMB: 24.8 and 18.9 and 21.2 and 17 and 24 and 19.1
  PD-1 TIM-3: 32.5 and 47.7 and 47.8 and 31.8 and 39.5 and 41.5
AT3 mammary tumors [4]; Figure 9E, first IFNg+ TNF+ panel, AT-3, individual mice, listed as CMP-182
  IFNg+ TNF+: 7.74 and 4.13 and 7.71 and 10.5 and 16.5 and 3.24
AT3 mammary tumors [4]; Figure 9E, second IFNg+ TNF+ panel, AT-3, individual mice, listed as CMP-182
  IFNg+ TNF+: 19 and 26.4 and 15.4 and 31.9 and 43.5 and 25.3
AT3 mammary tumors [4]; [11]
  MDSCs: 15172.6 and 12646.1 and 18636.2 and 29520.3 and 27688.9 and 13342.8
  NK cells: 41998.7 and 24391.4 and 32687 and 55002.2 and 59698.1 and 23635.5
  Tregs: 32249.8 and 40798.3 and 43823.5 and 55176.6 and 44430.4 and 6773.49
[5]; AT3-OVA tumor-bearing mice, 10 mg/kg i.v.
  morbidity or systemic inflammation: not accompanied by overt signs of morbidity or systemic inflammation
[5]; dosing every two days
  overt toxicities: did not result in any overt toxicities
